# Target: radiolabelled octapeptide repeat peptide *acetyl…amide
# Settings: not given
row,Molecule,% unbound [14C]
1,"peptide 97, QLGHQW, on Toyopearl resin, free amino terminal",85%
2,"peptide 101, WIPPYN, on Toyopearl resin, free amino terminal",84%
3,"peptide 110, IQIWIF, on Toyopearl resin, free amino terminal",85%
4,"peptide 111, LWWLFV, on Toyopearl resin, free amino terminal",85%
5,"peptide 116, WLVWIA, on Toyopearl resin, free amino terminal",85%

# Target: radiolabelled octapeptide repeat *acetyl[…]amide (SEQ ID NO:2) (Homo sapiens, UniProt P04156)
# Settings: not given
row,Molecule,binding of octapeptide to resin (in words)
1,GFFFWW [Peptide 89],highest affinity binder

# Same assay, conditions: pH 7.4
row,Molecule,% unbound [14C]
1,FYVFTA [90/98],82%
2,GFFFWW [Peptide 89],23%
3,HKEQGA [Peptide 119],91%
4,IFFWIK [Peptide 112],77%
5,IQIWIF [Peptide 110],85%
6,LAWFWR [Peptide 88],90%
7,LEIRLA [Peptide 93],96%
8,LLIWIP [Peptide 84],89%
9,LLLVIA [Peptide 94],83%
10,LRVIIS [Peptide 96],90%
11,LWWLFV [Peptide 111],85%
12,PFHPG [Peptide 100],88%
13,QLGHQW [Peptide 97],85%
14,QWWFII [Peptide 114],87%
15,RWIISL [Peptide 113],89%
16,SFPYYY [Peptide 92],90%
17,SLEEYV [Peptide 95],89%
18,SNYGPY [Peptide 99],79%
19,TGIPII [Peptide 118],88%
20,VFEYIK [Peptide 115],87%
21,WEFYWF [Peptide 86],76%
22,WFPHFF [Peptide 102],64%
23,WIPPYN [Peptide 101],84%
24,WLVWIA [Peptide 116],85%
25,WLYWIP [Peptide 85],90%
26,YFIWWE [Peptide 91],58%
27,YVFNWY [Peptide 87],45%
28,YWFIYI [Peptide 117],83%

# Target: radiolabelled octapeptide repeat peptide *acetyl…amide
# Settings: not given
# Remark: another data set of the same source
row,Molecule,% unbound [14C]
1,"HKEQGA (modifications not checked) [peptide 119, HKEQGA, on Toyopearl resin, free amino terminal]",91%
2,"FYVFTA (modifications not checked) [peptide 90/98, FYVFTA, on Toyopearl resin, free amino terminal]",82%
3,"GFFFWW (modifications not checked) [peptide 89, GFFFWW, on Toyopearl resin, free amino terminal]",23%
4,"YWFIYI (modifications not checked) [peptide 117, YWFIYI, on Toyopearl resin, free amino terminal]",83%
5,"PFHPG (modifications not checked) [peptide 100, PFHPG, on Toyopearl resin, free amino terminal]",88%
6,"YFIWWE (modifications not checked) [peptide 91, YFIWWE, on Toyopearl resin, free amino terminal]",58%
7,"SNYGPY (modifications not checked) [peptide 99, SNYGPY, on Toyopearl resin, free amino terminal]",79%
8,"TGIPII (modifications not checked) [peptide 118, TGIPII, on Toyopearl resin, free amino terminal]",88%
9,"LLLVIA (modifications not checked) [peptide 94, LLLVIA, on Toyopearl resin, free amino terminal]",83%
10,"LEIRLA (modifications not checked) [peptide 93, LEIRLA, on Toyopearl resin, free amino terminal]",96%
11,"SFPYYY (modifications not checked) [peptide 92, SFPYYY, on Toyopearl resin, free amino terminal]",90%
12,"SLEEYV (modifications not checked) [peptide 95, SLEEYV, on Toyopearl resin, free amino terminal]",89%
13,"LLIWIP (modifications not checked) [peptide 84, LLIWIP, on Toyopearl resin, free amino terminal]",89%
14,"WLYWIP (modifications not checked) [peptide 85, WLYWIP, on Toyopearl resin, free amino terminal]",90%
15,"RWIISL (modifications not checked) [peptide 113, RWIISL, on Toyopearl resin, free amino terminal]",89%
16,"WFPHFF (modifications not checked) [peptide 102, WFPHFF, on Toyopearl resin, free amino terminal]",64%
17,"YVFNWY (modifications not checked) [peptide 87, YVFNWY, on Toyopearl resin, free amino terminal]",45%
18,"LAWFWR (modifications not checked) [peptide 88, LAWFWR, on Toyopearl resin, free amino terminal]",90%
19,"LRVIIS (modifications not checked) [peptide 96, LRVIIS, on Toyopearl resin, free amino terminal]",90%
20,"IFFWIK (modifications not checked) [peptide 112, IFFWIK, on Toyopearl resin, free amino terminal]",77%
21,"VFEYIK (modifications not checked) [peptide 115, VFEYIK, on Toyopearl resin, free amino terminal]",87%
22,"QWWFII (modifications not checked) [peptide 114, QWWFII, on Toyopearl resin, free amino terminal]",87%
23,"WEFYWF (modifications not checked) [peptide 86, WEFYWF, on Toyopearl resin, free amino terminal]",76%

# Reference: patent US20040186273A1 (V.I. Technologies, Inc., priority 2000, published 2004)
